Molecules are shown by their SMILES.

This assay deals with T1, purified GP IIb/IIIa fibrinogen receptor from human blood platelets (Homo sapiens, UniProt P05106+P08514).
T1 construct: purified GP IIb/IIIa fibrinogen receptor from human blood platelets; from tissue; host or cells: human blood platelets
The assay can be described thus: Inhibition of fibrinogen binding to GP IIb/IIIa, solid phase enzyme immunoassay of the ELISA type (Kouns et al.). Conditions: purified human plasma fibrinogen 20 μg/ml, 37° C., 2 hours, read-out: pIC50 (negative common logarithm of the IC50 for inhibition of the specific fibrinogen binding of GP IIb/IIIa) (converted). The protocol: The inhibitory action of the substances of the formula I on the fibrinogen binding to the fibrinogen receptor of the blood platelets, the GP IIb/IIIa, was detected in a solid phase enzyme immunoassay of the ELISA type ("Enzyme-Linked Immunosorbent Assay") according to the method described by Kouns et al. (Blood 80 (1992) 2539-2547).
A solution of purified GP IIb/IIIa fibrinogen receptor from human blood platelets (1 μg/ml in phosphate-buffered physiological saline solution, pH 7.4) was applied in portions of 100 μl/sample position to a microtitre plate and allowed to stand at 4° C. for 18 hours. Excess receptor reagent was washed off by a standard wash (3 times 350 μl of wash buffer solution/sample position: 0.01% (v/v) Tween 80 in phosphate-buffered physiological saline solution) and unoccupied residual protein binding sites were occupied by a blocking reagent [300 μl/sample position of an aqueous receptor buffer solution: 20 mmole/liter of tris(hydroxymethyl)aminomethane, 150 mmole/liter of NaCl, 1 mmole/liter of MgCl2, 1 mmole/liter of CaCl2; treated with 5% (w/v) bovine serum albumin (BSA)]. The mixture was incubated at 37° C. for 2 hours and excess blocking reagent was removed.
Purified human plasma fibrinogen [100 μl/sample position of a 20 μg/ml solution in test buffer. Test buffer=receptor buffer mixed with 1% (w/v) BSA] was then added together with the test substance dissolved therein (concentration dependent on the test substance) and incubated at 37° C. for 2 hours. Unbound fibrinogen was removed by standard washing and the incubation was continued for a further hour at room temperature after addition of biotinylated rabbit antibodies against human fibrinogen (100 μl/sample position in optimum use dilution, dissolved in test buffer) . After a further standard wash, horseradish peroxidase-conjugated streptavidin (1:2000, in suitable dilution in test buffer) was added, and the mixture was incubated again at room temperature for one hour, followed by a further standard wash.
Finally, the peroxidase substrate 2,2'-azinodi-(3-ethylbenzothiazolinesulfonate) (abbreviated below as ABTS), (100 μl/sample position of a solution of 0.4 g/liter of ABTS in 0.1 mole/liter of citric acid buffer, adjusted to pH 4 using 0.4 mole/liter of NaH2 PO4 ·2 H2 O), treated with 0.003% (w/v) hydrogen peroxide, was added and the extinction of the mixture was measured at 405 nm at 5 minute intervals for twenty minutes.
The peroxidase activity was determined from the measurements as the increase in the extinction with time. It was used to calculate the total fibrinogen binding and also the non-specific fibrinogen binding. The non-specific fibrinogen binding was determined without addition of the GP IIb/IIIa. The specific fibrinogen binding could be calculated from these two values. The effect of the test substances was expressed in IC50 values, which were obtained by interpolation from concentration-dependent measuring curves. The IC50 is that concentration in μmole/liter at which a test substance inhibits the specific fibrinogen binding of GP IIb/IIIa by 50%. The following Table 1 presents the IC50 values found for the test substance as negative common logarithms, the pIC50 values. The example numbers relate to the subsequent preparation examples.
Background: An ELISA detects its analyte on a solid surface through an enzyme-linked reagent.

T1 sequence (P08514 32-887 limits assumed): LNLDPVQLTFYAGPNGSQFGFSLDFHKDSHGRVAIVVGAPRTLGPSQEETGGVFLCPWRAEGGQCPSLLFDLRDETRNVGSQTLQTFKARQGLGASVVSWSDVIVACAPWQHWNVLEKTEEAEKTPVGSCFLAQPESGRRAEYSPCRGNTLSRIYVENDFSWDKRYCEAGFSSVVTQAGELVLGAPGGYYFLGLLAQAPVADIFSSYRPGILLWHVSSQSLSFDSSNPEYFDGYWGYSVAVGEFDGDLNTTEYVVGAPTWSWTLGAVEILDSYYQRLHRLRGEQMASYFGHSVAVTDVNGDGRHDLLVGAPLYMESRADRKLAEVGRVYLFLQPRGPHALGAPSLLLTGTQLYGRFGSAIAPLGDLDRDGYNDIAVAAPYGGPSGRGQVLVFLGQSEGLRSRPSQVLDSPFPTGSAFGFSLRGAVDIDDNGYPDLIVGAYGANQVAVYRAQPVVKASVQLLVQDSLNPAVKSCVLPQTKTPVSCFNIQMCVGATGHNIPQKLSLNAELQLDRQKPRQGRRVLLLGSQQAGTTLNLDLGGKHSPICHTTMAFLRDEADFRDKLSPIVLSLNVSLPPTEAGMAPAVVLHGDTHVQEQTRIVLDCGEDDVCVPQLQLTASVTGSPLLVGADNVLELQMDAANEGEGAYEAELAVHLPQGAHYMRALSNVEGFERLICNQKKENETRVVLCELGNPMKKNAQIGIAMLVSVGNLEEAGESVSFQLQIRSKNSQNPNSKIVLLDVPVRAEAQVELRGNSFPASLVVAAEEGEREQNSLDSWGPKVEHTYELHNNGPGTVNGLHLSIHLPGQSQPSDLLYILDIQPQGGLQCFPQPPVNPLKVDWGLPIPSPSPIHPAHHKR
T1 sequence (P08514 891-1039 limits assumed): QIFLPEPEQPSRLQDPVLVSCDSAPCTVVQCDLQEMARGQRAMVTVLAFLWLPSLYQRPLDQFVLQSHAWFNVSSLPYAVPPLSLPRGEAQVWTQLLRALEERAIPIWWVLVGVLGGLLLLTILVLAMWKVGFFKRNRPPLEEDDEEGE
T1 sequence (P05106 27-788): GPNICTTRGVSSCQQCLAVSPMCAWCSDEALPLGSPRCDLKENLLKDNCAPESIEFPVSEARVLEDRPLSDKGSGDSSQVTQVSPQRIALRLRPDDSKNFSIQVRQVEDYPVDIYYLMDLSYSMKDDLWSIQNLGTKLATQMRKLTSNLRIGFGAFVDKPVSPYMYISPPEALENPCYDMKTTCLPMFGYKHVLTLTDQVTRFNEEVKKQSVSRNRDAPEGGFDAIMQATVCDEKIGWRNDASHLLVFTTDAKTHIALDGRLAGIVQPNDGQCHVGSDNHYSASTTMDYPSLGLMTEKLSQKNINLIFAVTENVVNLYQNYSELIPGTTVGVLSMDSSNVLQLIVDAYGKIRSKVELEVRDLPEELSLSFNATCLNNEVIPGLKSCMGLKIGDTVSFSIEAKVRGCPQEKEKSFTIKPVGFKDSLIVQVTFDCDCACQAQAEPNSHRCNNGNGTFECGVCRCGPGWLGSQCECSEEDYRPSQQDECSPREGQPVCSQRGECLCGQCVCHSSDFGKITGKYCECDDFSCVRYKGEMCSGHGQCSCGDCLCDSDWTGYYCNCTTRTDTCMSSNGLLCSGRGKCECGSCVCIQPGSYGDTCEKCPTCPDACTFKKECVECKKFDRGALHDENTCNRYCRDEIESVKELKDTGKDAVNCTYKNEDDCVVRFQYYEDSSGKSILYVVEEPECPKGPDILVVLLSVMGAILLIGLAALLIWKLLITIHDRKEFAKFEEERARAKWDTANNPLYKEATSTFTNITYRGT

`N=C(N)c1ccc(N2CCN(c3ccc(OCC(=O)O)cc3)CC2)nc1` [Example 6, 4-{4-[2-(5-Amidinopyridyl)]-1-piperazinyl}-phenoxyacetic acid]: the IC50 was 1.55 nM.
Take `N=C(N)c1ccc(N2CCN(c3ccc(CCC(=O)O)cc3)CC2)cc1` [Example 12]: the IC50 was 28.2 nM.
Regarding `COC(=O)COc1ccc(N2CCN(c3ccc(C(=N)N)cn3)CC2)cc1` [Example 7, Methyl 4-{4-[2-(5-amidinopyridyl)]-1-piperazinyl}phenoxyacetate], the IC50 is 36.3 nM.
Next, `N=C(N)c1ccc(N2CCN(c3ccc(CCC(=O)O)cc3)CC2)nc1` [Example 10, 3-{4-[4-(2-(5-Amidinopyridyl))-1-piperazinyl]-phenyl}propionic acid]: 30.2 nM; `N=C(N)c1ccc(N2CCN(c3ccc(OCC(=O)O)cc3)CC2)cc1` [Example 2a, 4-[4-(4-Amidinophenyl)-1-piperazinyl]-phenoxyacetic acid]: 1.58 nM.

For the origin of these results see patent US5843948A, “Piperazinophenyl- and piperazinophenyloxycarboxylic acid derivatives, and processes and intermediates for their preparation and pharmaceutical compositions comprising them” (Solvay Pharmaceuticals GmbH, priority 1996, dated 1998).
